Test results published in patent US10822311B2, “Pyrimidines and variants thereof, and uses therefor” (Afferent Pharmaceuticals Inc., priority 2016, dated 2020).
Like-named read-outs stand apart in the source and are kept apart here.

What was measured:
[1] = biological target: T1, human P2X2/3 (heteromeric P2X2/3 channels) (Homo sapiens, UniProt P56373+Q9UBL9); experiment: FlexStation calcium fluorescence assay, heteromeric P2X2/3 channels in 1321N1 cells; type: cell-based; details: for P2X2/3 mean pIC50, R = OMe: Table 3B, Table 2
T1 construct: expressed in transfected cells; host or cells: 1321N1 human astrocytoma cells (1321N1-hP2X2/3)
T1 sequence (P56373 1-397): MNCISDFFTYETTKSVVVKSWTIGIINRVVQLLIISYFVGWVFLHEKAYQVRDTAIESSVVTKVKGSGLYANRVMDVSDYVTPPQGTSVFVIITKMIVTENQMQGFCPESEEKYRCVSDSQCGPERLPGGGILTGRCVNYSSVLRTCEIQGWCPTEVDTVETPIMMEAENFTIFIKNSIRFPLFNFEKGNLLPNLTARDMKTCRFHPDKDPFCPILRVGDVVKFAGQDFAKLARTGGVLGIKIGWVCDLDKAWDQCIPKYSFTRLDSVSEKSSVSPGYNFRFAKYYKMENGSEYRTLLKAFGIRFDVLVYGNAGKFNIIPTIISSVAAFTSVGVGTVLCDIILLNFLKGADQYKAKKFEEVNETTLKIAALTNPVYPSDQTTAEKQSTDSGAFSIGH
T1 sequence (Q9UBL9 1-471): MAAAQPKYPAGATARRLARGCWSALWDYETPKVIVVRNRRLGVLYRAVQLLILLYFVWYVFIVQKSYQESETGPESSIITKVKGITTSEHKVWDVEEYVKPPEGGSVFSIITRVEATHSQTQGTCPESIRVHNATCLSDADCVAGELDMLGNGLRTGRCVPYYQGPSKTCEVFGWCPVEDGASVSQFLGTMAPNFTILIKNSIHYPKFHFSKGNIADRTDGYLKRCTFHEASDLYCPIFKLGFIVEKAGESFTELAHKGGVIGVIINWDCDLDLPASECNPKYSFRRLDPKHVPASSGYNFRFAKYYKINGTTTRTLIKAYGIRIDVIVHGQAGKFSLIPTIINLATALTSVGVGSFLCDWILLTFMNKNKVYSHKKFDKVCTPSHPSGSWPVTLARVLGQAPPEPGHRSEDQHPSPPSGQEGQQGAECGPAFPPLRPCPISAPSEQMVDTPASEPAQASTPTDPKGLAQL
Description: (§1) 1321N1 human astrocytoma and HEK293 human embryonic kidney cells were stably transfected with human P2X2 and P2X3 receptor subunits to form heteromeric P2X2/3 channels and passaged in flasks. Additionally, HEK293 cells were stably transfected with human P2X3 receptor subunits to form homomeric P2X3 channels.
(§2) Approximately 24 hours before the FlexStation calcium fluorescence experiment, cells were released from their flasks, centrifuged and re-suspended in nutrient medium. The cells were aliquoted into black-wall, clear-bottom 96 well plates at a density of 25,000 cells per well and incubated overnight in a humidified, CO2-enriched (5%) atmosphere at 37° C.
(§3) On the day of the experiment, cells were washed with assay buffer (calcium- and magnesium-free Hank's balanced salt solution, 20 mM HEPES, 2 mM CaCl2; AB) and loaded with 4 μM Fluo-4 (P2X2/3) or Calcium 6 (Molecular Devices, according to manufacturer's instructions; P2X3) calcium-sensitive fluorescent dye in 100 μL AB.
(§4) After 1 hour of dye loading at 37° C., 1321N1-hP2X2/3 cells were washed two times with AB and test compound or vehicle added to each well in a total volume of 150 μL AB. HEK-hP2X3 cells were not washed because the Calcium 6 dye kit includes an extracellular dye that quenches unabsorbed Calcium 6 dye; test compound or vehicle were added directly to the assay plates to achieve the appropriate concentration of test compound in a total volume of 150 μL AB.
(§5) After 20 minutes incubation at room temperature and protected from light, the assay plates were loaded into the FlexStation microplate reader and baseline fluorescence measured with an excitation wavelength of 485 nm and emission wavelength readings centered at 525 nm (515 nm cut off).
(§6) The agonist was dispensed by the FlexStation during fluorescence measurement to construct agonist activation and antagonist inhibition curves. The final agonist concentration for inhibition was 1 μM α,β-meATP for P2X3 and 3 μM ATP for P2X2/3. Peak fluorescence was measured and curves generated using a four parameter nonlinear regression equation.

[2] = biological target: T2, human P2X3 receptor (homomeric P2X3 channels) (Homo sapiens, UniProt P56373); experiment: FlexStation calcium fluorescence assay, homomeric P2X3 channels in HEK293 cells; type: cell-based; details: for Selectivity P2X3/P2X2/3: Ratio=10^(P2X3pIC50−P2X2/3pIC50); for Selectivity, R = OMe / P2X3 mean pIC50, R = OMe: Table 3B; for P2X3 mean pIC50, R = OMe: Table 2
T2 construct: expressed in transfected cells; host or cells: HEK293 human embryonic kidney cells (HEK-hP2X3)
T2 sequence (P56373 1-397): T1 sequence (P56373 1-397)
Description: as §1, §2, §3, §4, §5, §6

[3] = 1321N1 cells, hP2X2/3, agonist 3 μM ATP, highest concentration tested is 10 μM, read-out: Average pIC50 P2X2/3 (converted)
[4] = HEK293 cells, hP2X3, agonist 1 μM α,β-meATP, read-out: Average pIC50 P2X3 (converted)
[5] = Table 3A, sulfur-linked, hP2X2/3, 1321N1 (astrocytoma) cells, highest concentration tested is 10 μM
[6] = Table 3A, sulfur-linked, hP2X3, HEK293 cells
[7] = hP2X2/3, 1321N1 (astrocytoma) cells

IC50 [1, 3]	IC50 [2, 4]	Selectivity P2X3/P2X2/3 [2]	Structure (SMILES)	further results
> 10 µM	1 µM	>10.5	COc1cc(Oc2cnc(NC(C)(C)C)nc2N)c(C(C)C)cc1OC [Compound 23]	
> 10 µM	0.794 µM		CC#Cc1cc(Sc2cnc(N)nc2N)c(C(C)C)cc1OC [Compound 6]	
> 10 µM	0.501 µM		COc1cc(C(C)C)c(Sc2cnc(N)nc2N)cc1S(C)(=O)=O [Compound 2]	P2X2/3 mean pIC50, X = S [1, 5]: <5; P2X3 mean pIC50, X = S [2, 6]: 6.3
3.16 µM	0.631 µM	4.8	COc1cc(Oc2cnc(N)nc2NCc2ccccc2)c(C(C)C)cc1OC [Compound 46]	
> 10 µM	1 µM	>10	COc1cc(Oc2cnc(N)nc2NCCO)c(C(C)C)cc1OC [Compound 37]	
> 10 µM	0.0631 µM		COc1nc(C(C)C)c(Oc2cnc(N)nc2N)cc1S(C)(=O)=O [Compound 16]	
> 10 µM	1.58 µM	>5.9	COCCOCCNc1ncc(Oc2cc(OC)c(OC)cc2C(C)C)c(N)n1 [Compound 24]	
1.26 µM	0.398 µM	3.2	COc1cc(Oc2cnc(NC3CCOCC3)nc2N)c(C(C)C)cc1OC [Compound 28]	
1.58 µM	0.0631 µM		COc1nc(C(C)C)c(Oc2cnc(N)nc2N)cc1C(F)(F)F [Compound 18]	
> 10 µM	1.58 µM	>5.6	COc1cc(Oc2cnc(N)nc2Nc2ccccn2)c(C(C)C)cc1OC [Compound 43]	
> 10 µM	1.26 µM	>8	COc1cc(Oc2cnc(N)nc2NC2CCOCC2)c(C(C)C)cc1OC [Compound 40]	
> 10 µM	0.316 µM		COc1cc(C(C)C)c(Sc2cnc(N)nc2N)cc1C [Compound 7]	
3.16 µM	0.398 µM	9.3	CCNc1ncc(Oc2cc(OC)c(OC)cc2C(C)C)c(N)n1 [Compound 29]	
> 10 µM	1 µM	>10	COCCNc1nc(N)ncc1Oc1cc(OC)c(OC)cc1C(C)C [Compound 36]	
> 10 µM	3.98 µM	>2.5	COc1cc(Oc2cnc(N)nc2NC(C)C)c(C(C)C)cc1OC [Compound 35]	
3.16 µM	0.631 µM	5.4	COc1cc(Oc2cnc(NC3CC3)nc2N)c(C(C)C)cc1OC [Compound 26]	
0.398 µM	0.0631 µM	6.5	COc1nc(C(C)C)c(Oc2cnc(N)nc2N)cc1I [Compound 15]	
6.31 µM	0.126 µM		COc1cc(C(C)C)c(Sc2cnc(N)nc2N)cc1I [Compound 4]	P2X2/3 mean pIC50, X = S [1, 5]: 5.2; Selectivity, X = S ([2]; Table 3A, sulfur-linked, P2X3 vs P2X2/3 potency ratio): 48
2.51 µM	0.631 µM	4.3	COc1cc(Oc2cnc(NCC(C)C)nc2N)c(C(C)C)cc1OC [Compound 25]	
6.31 µM	0.316 µM	20	COc1cc(Oc2cnc(N)nc2NC2CCN(C)CC2)c(C(C)C)cc1OC [Compound 39]	

IC50 [1, 3]	IC50 [2, 4]	Selectivity P2X3/P2X2/3 [2]	Structure (SMILES)	further results
			COc1cc(Sc2cnc(N)nc2N)c(C(C)C)cc1OC [Compound 1]	Average pIC50 P2X2/3 ([1]; 1321N1 cells, hP2X2/3, agonist 3 μM ATP, highest concentration tested is 10 μM): <5; P2X2/3 mean pIC50, X = S ([1]; Table 3A, sulfur-linked, hP2X2/3, 1321N1 (astrocytoma) cells, highest concentration tested is 10 μM, listed as Row A, X = S): <5; IC50 ([1]; Table 3A, sulfur-linked, hP2X2/3, 1321N1 (astrocytoma) cells, highest concentration tested is 10 μM, read-out: P2X2/3 mean pIC50, X = S (converted)): > 10 µM; Average pIC50 P2X3 ([2]; HEK293 cells, hP2X3, agonist 1 μM α,β-meATP): 7.0; P2X3 mean pIC50, X = S ([2]; Table 3A, sulfur-linked, hP2X3, HEK293 cells, listed as Row A, X = S): 7.0; IC50 ([2]; Table 3A, sulfur-linked, hP2X3, HEK293 cells, read-out: P2X3 mean pIC50, X = S (converted)): 0.1 µM
> 10 µM	5.01 µM		COc1cc(C(C)C)c(Sc2cnc(N)nc2N)cc1C(=O)O [Compound 12]	
> 10 µM	0.158 µM		COc1cc(C(C)C)c(Sc2cnc(N)nc2N)cc1Cl [Compound 9]	P2X2/3 mean pIC50, X = S [1, 5]: <5; P2X3 mean pIC50, X = S [2, 6]: 6.8
> 10 µM	1 µM		COc1nc(C(C)C)c(Oc2cnc(N)nc2N)cc1C#N [Compound 17]	
1.26 µM	0.794 µM	1.6	COc1cc(Oc2cnc(N)nc2NC2CC2)c(C(C)C)cc1OC [Compound 32]	
0.631 µM	0.126 µM	4.9	COc1cc(Oc2cnc(NC(CO)CO)nc2N)c(C(C)C)cc1OC [Compound 30]	P2X2/3 mean pIC50, R = OMe [1, 7]: 6.2; Selectivity, R = OMe ([2]; P2X3 vs P2X2/3 potency ratio): 5.0; P2X3 mean pIC50, R = OMe ([2]; hP2X3, HEK293 cells): 6.9
> 10 µM	0.631 µM	>15	COc1cc(Oc2cnc(N)nc2NCC(C)C)c(C(C)C)cc1OC [Compound 33]	
0.2 µM	0.0398 µM		COc1cc(Oc2cnc(N)nc2N)c(C(C)C)nc1OC [Compound 13]	
> 10 µM	3.16 µM	3.5	COc1cc(Oc2cnc(N)nc2Nc2cccnn2)c(C(C)C)cc1OC [Compound 45]	
3.98 µM	0.0398 µM		C#Cc1cc(Sc2cnc(N)nc2N)c(C(C)C)cc1OC [Compound 5]	
> 10 µM	0.158 µM		COc1cc(C(C)C)c(Sc2cnc(N)nc2N)cc1-c1nnn[nH]1 [Compound 11]	
> 10 µM	0.158 µM		COc1cc(C(C)C)c(Sc2cnc(N)nc2N)cc1S(N)(=O)=O [Compound 3]	
> 10 µM	0.398 µM	>27	COc1cc(Oc2cnc(N)nc2NCCS(C)(=O)=O)c(C(C)C)cc1OC [Compound 41]	
> 10 µM	1.58 µM	>6.4	CNc1nc(N)ncc1Oc1cc(OC)c(OC)cc1C(C)C [Compound 34]	
1.38 µM	0.049 µM		COc1cc(Nc2cnc(N)nc2N)c(C(C)C)cc1OC [Compound 47]	
> 10 µM	> 10 µM		COc1cc(C(C)C)c(Sc2cnc(N)nc2N)cc1C#N [Compound 10]	
2.51 µM	0.158 µM	17	COc1cc(Oc2cnc(N)nc2NCCN(C)C)c(C(C)C)cc1OC [Compound 38]	
> 10 µM	1 µM	>10	COc1cc(Oc2cnc(N)nc2Nc2cnccn2)c(C(C)C)cc1OC [Compound 44]	
1.58 µM	0.2 µM	7.9	COc1cc(Oc2cnc(NCCO)nc2N)c(C(C)C)cc1OC [Compound 22]	P2X2/3 mean pIC50, R = OMe [1, 7]: 5.8; Selectivity, R = OMe ([2]; P2X3 vs P2X2/3 potency ratio): 7.9; P2X3 mean pIC50, R = OMe ([2]; hP2X3, HEK293 cells): 6.7
